Experimental findings from patent US20260151403A1, “NEK7 DEGRADERS AND METHODS OF USE THEREOF” (Captor Therapeutics S.A., priority 2022, published 2026) are described below.

Experiment [1] deals with T1, [NEK7]-[compound of formula (I)]-[CRBN/DDB1] complex (Homo sapiens, UniProt Q8TDX7+Q96SW2). In words: AlphaLISA dose response ternary complex formation assay. Format: binding. Conditions: 1 μM compound, normalized to maximum signal of Compound 2 (positive control) and DMSO background; for activation at 1 µM: read-out: Normalized AlphaLISA ternary complex average signal at 1 μM molecule. Here is the method:
The effect of the molecular glue compounds of the invention on the formation of a ternary complex composed of [NEK7]-[compound of formula (I)]-[CRBN/DDB1] was investigated with two methods: AlphaLISA dose response assay or HTRF ternary complex assay.
Two types of protein solution were prepared: • 200 nM biotinylated NEK7, 40 μg/ml AlphaScreen Streptavidin-coated Donor Beads in HBS (10 mM HEPES, 150 mM NaCL, pH 7.4) buffer with 0.1% Tween-20 and 1 mM DTT, • 200 nM 6×His-CRBN/Strep-DDB1, 40 μg/ml AlphaLISA Anti-6×His Acceptor beads in HBS buffer with 0.1% Tween-20 and 1 mM DTT.
The prepared solutions were incubated at room temperature for 30 min and then the solution containing the donor beads was mixed with the solution containing the acceptor beads.
The tested compounds were dispensed onto a white 384-well AlphaPlate 384 SW. DMSO was backfilled to all wells, resulting in a final DMSO content of 2%. Wells containing only DMSO served as background. Next, 10 μl of solution with donor and acceptor beads was added to the wells.
The plate was sealed with transparent film and shaken using a VibroTurbulator for 60 sec at room temperature, level 3. The plate was then spun down shortly (10 s, 1000 rcf, room temperature) and incubated at 25° C. for 30 min.
The read-out was performed with PerkinElmer Enspire Multimode Plate Reader (method for AlphaLISA 384-well low volume, Filterset: λexc=680 nm, λem=615 nm).
The results were analyzed as follows: • 1) an average of luminescence for background signal was calculated and used as a negative control; • 2) average of the maximum measured luminescence for Compound 2 was calculated and used as an internal positive control; • 3) raw luminescence values were normalized against positive and negative controls; • 4) Normalized responses to Compound 2 were determined.
(In Alpha technology, singlet oxygen from a donor bead excites a nearby acceptor bead.)

Experiment [2] has as its target T1, [NEK7]-[compound of formula (I)]-[CRBN/DDB1] complex. Briefly: HTRF ternary complex assay. The format is binding. The following applies: dose-response, 180 min at 25° C.; for EC50: read-out: HTRF ternary complex Average pEC50 by molecule (converted). As for the experimental part: The effect of the molecular glue compounds of the invention on the formation of a ternary complex composed of [NEK7]-[compound of formula (I)]-[CRBN/DDB1] was investigated.
Mix solution of proteins and reagents was prepared: • 24 nM NEK7, 52.8 nM 6×His-CRBN/Strep-DDB1, 3 nM of Streptavidin-Eu cryptate […] and 6.67 nM of Anti-6×his-d2 […] was prepared in PPI Europium detection buffer (Cisbio) with 1 mM DTT.
The tested compounds in dose-response were dispensed onto a white 384-well low volume plate (Greiner, 784075). DMSO was backfilled to all wells, resulting in a final DMSO content of 0.5%. Wells containing only DMSO served as background.
The plate was sealed with transparent film and shaken using a VibroTurbulator for 60 sec at level 3.
The plate was then spun down shortly (10 s, 1000 rcf) and incubated at 25° C. for 180 min.
The read-out was performed with plate reader (Pherastar, BMG Labtech) in time resolved fluorescence mode. Filterset: TR 337 665 620.
The results were analyzed as follows: • 1) an average of fluorescence for background signal was calculated and used as a negative control; • 2) raw fluorescence values for tested compounds were normalized against negative controls; • 3) saturation curve was fitted to specific binding with Hill slope model; • 4) EC50 and pEC50 values were determined.
Background: TR-FRET usually uses a lanthanide donor and a delayed reading to cut background.

The next experiment concerns the target NEK7-HiBiT protein (Homo sapiens, UniProt Q8TDX7). Briefly: NEK7-HiBiT degradation assay (Nano-Glo HiBiT Lytic Assay) in HEK293 NEK7-HiBiT cells. The format is cell-based. The following applies: 24 h, conc. 0.1, 1 and 10 μM tested, concentration of the table values not stated, mean of 3 technical replicates. Here is the method: HEK293 NEK7-HiBiT cells were generated using CRISPR-Cas9 system. HEK293 cells were transformed with pSpCas9-BB-2A-Puro v2.0 plasmid carrying gRNA targeting the N-terminus of NEK7 and ssODN template containing the HiBiT tag sequence with flanking homology sequences. Neon Transfection System (Thermo Fisher Scientific) was used for electroporation. HEK293 NEK7-HiBiT cells were cultured with DMEM Glutamax (Gibco) supplemented with 10% heat inactivated FBS (Gibco). After transfection the culture medium was changed to DMEM Glutamax with 10% heat-inactivated FBS and 1% Penicillin-Streptomycin (Biowest) supplemented with Puromycin (2 μg/ml; Invivogen) for clonal selection. In order to isolate single cell clones for further validation and analysis, limiting dilution cloning in 96-well plates was performed. When the single clones reached confluency, HiBiT Lytic Assay (Promega) was performed in order to identify HiBiT positive clones. The clone selected for further studies was verified and validated using genotyping and HiBiT Blotting (Promega).
Selected clone of HEK293 NEK7-HiBiT cells was maintained in the DMEM-Glutamax medium supplemented with 10% of heat-inactivated FBS (Gibco) and 1% of Penicillin-Streptomycin Solution 100x (Biowest) at 37° C., 5% CO2 and subcultured every 2-3 days.
For Nano-Glo HiBiT Lytic Assay HEK293 NEK7-HiBiT cells were seeded at the density 2×10^3 cells in triplicates in the 40 μL of growth medium per single well on 384 well plate (Greiner Bio-One). Compounds or DMSO were added to treatment plates using Echo555 Liquid Handler and incubated at 37° C., 5% CO2 for 24 hours. After incubation 40 μL of Nano-Glo HiBiT Lytic Reagent (prepared according to the manufacturer protocol) were added to 40 μL of the cell culture medium present in each well. The plate content was briefly mixed (460 rpm) on an orbital shaker to ensure cell lysis. The plate was left at RT protected from light for another 10 min to stabilize the luminescent signal. The luminescence signal was measured using CLARIOstar Multimode Plate Reader. Focus and gain were adjusted to DMSO treated cells. The results were calculated as the NEK7-HiBiT % relative to the DMSO control of 3 technical replicates relative to the DMSO control.
HEK293 NEK7-HiBiT cells were treated with the compounds (conc. 0.1, 1 and 10 μM) or DMSO for 24 h. After incubation with compounds NEK7-HiBiT degradation was measured as a luminescence signal using CLARIOstar Multimode Plate reader.
Additionally, compounds reducing NEK7-HiBiT protein level by >=50% at 0.1 μM, were also identified.
On the technique in general: With HiBiT, luminescence reflects the tagged protein that the partner subunit can reach.

T1 sequence (Q8TDX7 whole entry): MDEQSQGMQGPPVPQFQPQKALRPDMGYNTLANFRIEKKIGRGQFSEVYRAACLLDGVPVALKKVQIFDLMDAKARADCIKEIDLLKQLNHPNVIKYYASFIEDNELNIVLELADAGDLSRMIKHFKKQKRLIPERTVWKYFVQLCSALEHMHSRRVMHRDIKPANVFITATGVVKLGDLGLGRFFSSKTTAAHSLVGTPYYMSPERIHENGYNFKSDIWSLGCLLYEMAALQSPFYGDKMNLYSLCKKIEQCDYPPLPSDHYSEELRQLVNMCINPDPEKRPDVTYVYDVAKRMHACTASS
T1 sequence (Q96SW2 whole entry): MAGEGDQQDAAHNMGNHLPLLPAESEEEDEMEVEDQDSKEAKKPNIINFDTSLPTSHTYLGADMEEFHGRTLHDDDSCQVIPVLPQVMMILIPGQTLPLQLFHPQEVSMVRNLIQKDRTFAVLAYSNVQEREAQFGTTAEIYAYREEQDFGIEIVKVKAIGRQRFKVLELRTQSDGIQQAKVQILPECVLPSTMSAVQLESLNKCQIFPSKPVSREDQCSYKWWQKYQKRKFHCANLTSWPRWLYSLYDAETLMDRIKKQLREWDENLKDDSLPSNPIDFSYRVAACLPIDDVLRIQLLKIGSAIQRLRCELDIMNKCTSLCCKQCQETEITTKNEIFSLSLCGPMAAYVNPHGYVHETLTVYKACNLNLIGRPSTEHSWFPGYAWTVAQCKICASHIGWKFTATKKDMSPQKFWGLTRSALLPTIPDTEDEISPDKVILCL
T1 sequence (Q16531 whole entry partner): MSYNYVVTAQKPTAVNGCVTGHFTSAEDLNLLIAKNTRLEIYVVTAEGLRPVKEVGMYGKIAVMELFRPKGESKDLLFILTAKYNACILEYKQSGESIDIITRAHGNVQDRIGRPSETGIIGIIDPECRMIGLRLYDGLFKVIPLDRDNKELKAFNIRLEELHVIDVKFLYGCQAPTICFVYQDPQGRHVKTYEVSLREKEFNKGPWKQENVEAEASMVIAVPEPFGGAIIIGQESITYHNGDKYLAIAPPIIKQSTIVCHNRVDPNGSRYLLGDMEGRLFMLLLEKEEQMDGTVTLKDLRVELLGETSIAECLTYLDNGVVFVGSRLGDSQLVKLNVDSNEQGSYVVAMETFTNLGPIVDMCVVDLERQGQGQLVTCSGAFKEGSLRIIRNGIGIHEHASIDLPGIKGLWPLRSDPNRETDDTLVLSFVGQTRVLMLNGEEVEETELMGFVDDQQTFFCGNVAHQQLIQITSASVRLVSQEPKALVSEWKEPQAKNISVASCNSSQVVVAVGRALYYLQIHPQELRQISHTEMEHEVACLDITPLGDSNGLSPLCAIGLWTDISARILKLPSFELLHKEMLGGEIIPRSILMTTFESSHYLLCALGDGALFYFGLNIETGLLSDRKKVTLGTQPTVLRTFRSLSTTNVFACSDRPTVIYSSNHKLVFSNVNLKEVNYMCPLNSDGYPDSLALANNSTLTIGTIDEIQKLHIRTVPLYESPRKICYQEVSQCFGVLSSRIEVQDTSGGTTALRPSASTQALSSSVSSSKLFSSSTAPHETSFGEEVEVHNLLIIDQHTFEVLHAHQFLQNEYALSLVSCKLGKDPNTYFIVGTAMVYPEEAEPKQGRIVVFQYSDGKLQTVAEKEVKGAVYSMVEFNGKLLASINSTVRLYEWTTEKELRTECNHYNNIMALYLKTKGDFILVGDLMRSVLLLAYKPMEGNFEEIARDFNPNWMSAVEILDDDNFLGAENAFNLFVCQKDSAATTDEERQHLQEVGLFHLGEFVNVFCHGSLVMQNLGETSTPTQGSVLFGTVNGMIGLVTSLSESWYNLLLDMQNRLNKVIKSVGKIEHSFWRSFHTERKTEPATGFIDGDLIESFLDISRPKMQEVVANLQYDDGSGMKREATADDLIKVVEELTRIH
Chain of NEK7-HiBiT protein (Q8TDX7 whole entry): as the sequence (Q8TDX7 whole entry) above
Chain of NEK7-HiBiT protein (Q96SW2 whole entry, further chain): as the sequence (Q96SW2 whole entry) above
Chain of NEK7-HiBiT protein (Q16531 whole entry partner): as the sequence (Q16531 whole entry partner) above

In the case of `CC(C)C1CCC(c2ccc3c(c2)CN(C2CCC(=O)NC2=O)C3=O)NC1` (single isomer, unassigned) [55 Isomer 2, 3-(5-(5-isopropylpiperidin-2-yl)-1-oxoisoindolin-2-yl)piperidine-2,6-dione], in experiment [1], the “Normalized AlphaLISA ternary complex average signal at 1 μM molecule” value is “A (Normalized activity > 80%)”. Moreover, the “HTRF ternary complex Average pEC50 by molecule” value in experiment [2] is recorded as “+++ (6.5 > pEC50 > 6.0)”. Further, the “Levels of NEK7-HiBiT Protein (as a % of DMSO control)” value (from here on “Levels … (as a % of DMSO control)”) on NEK7-HiBiT protein was “B (Levels of NEK7-HiBiT Protein > 25% and ≤50%)”.

For `CCCCC1CCC(c2ccc3c(c2)CN(C2CCC(=O)NC2=O)C3=O)OC1` (single isomer, unassigned) [70 Isomer 1, 3-(5-(5-butyltetrahydro-2H-pyran-2-yl)-1-oxoisoindolin-2-yl)piperidine-2,6-dione], the “Normalized AlphaLISA ternary complex average signal at 1 μM molecule” value in experiment [1] is on record as “D (Normalized activity < 10%)”. Moreover, the EC50 in experiment [2] is above 3160 nM. In addition, the “Levels … (as a % of DMSO control)” value at NEK7-HiBiT protein is “D (Levels of NEK7-HiBiT Protein ≥ 75%)”.

Regarding `CCCCC1CCC(c2ccc3c(c2)CN(C2CCC(=O)NC2=O)C3=O)OC1` (single isomer, unassigned) [70 Isomer 2, 3-(5-(5-butyltetrahydro-2H-pyran-2-yl)-1-oxoisoindolin-2-yl)piperidine-2,6-dione], the “Normalized AlphaLISA ternary complex average signal at 1 μM molecule” value in experiment [1] is reported as “A (Normalized activity > 80%)”. Further, the EC50 in experiment [2] is 1000 to 3160 nM. Also, the “Levels … (as a % of DMSO control)” value on NEK7-HiBiT protein is “B (Levels of NEK7-HiBiT Protein > 25% and ≤50%)”.

Regarding `O=C1CCC(N2Cc3cc(C4CCC(c5ccccc5)CO4)ccc3C2=O)C(=O)N1` (single isomer, unassigned) [74 Isomer 1, 3-(1-oxo-5-(5-phenyltetrahydro-2H-pyran-2-yl)isoindolin-2-yl)piperidine-2,6-dione], the “Normalized AlphaLISA ternary complex average signal at 1 μM molecule” value in experiment [1] is recorded as “D (Normalized activity < 10%)”. The EC50 in experiment [2] was above 3160 nM. Moreover, the “Levels … (as a % of DMSO control)” value on NEK7-HiBiT protein is recorded as “D (Levels of NEK7-HiBiT Protein ≥ 75%)”.

Consider `O=C1CCC(N2Cc3cc(C4CCC(c5ccccc5)CO4)ccc3C2=O)C(=O)N1` (single isomer, unassigned) [74 Isomer 2, 3-(1-oxo-5-(5-phenyltetrahydro-2H-pyran-2-yl)isoindolin-2-yl)piperidine-2,6-dione], for which the “Normalized AlphaLISA ternary complex average signal at 1 μM molecule” value in experiment [1] is reported as “A (Normalized activity > 80%)”. Besides, the EC50 in experiment [2] was 100 to 316 nM. The “Levels … (as a % of DMSO control)” value on NEK7-HiBiT protein is listed as “A (Levels of NEK7-HiBiT Protein ≤ 25%)”.

Take `O=C1CCC(N2Cc3cc(-c4ccc5ccccc5n4)ccc3C2=O)C(=O)N1` (stereo not drawn) [5(2), 3-(1-oxo-5-(quinolin-2-yl)isoindolin-2-yl)piperidine-2,6-dione]: the activation at 1 µM in experiment [1] was above 80%. In addition, in experiment [2], the EC50 was 100 to 316 nM. Besides, at NEK7-HiBiT protein, the “Levels … (as a % of DMSO control)” value was “B (Levels of NEK7-HiBiT Protein > 25% and ≤50%)”.

For `O=C1CCC(N2Cc3cc(-c4cc5ccccc5cn4)ccc3C2=O)C(=O)N1` (stereo not drawn) [6(2), 3-(5-(isoquinolin-3-yl)-1-oxoisoindolin-2-yl)piperidine-2,6-dione], in experiment [1], the activation at 1 µM was above 80%. In experiment [2], the EC50 was 100 to 316 nM. Also, the “Levels … (as a % of DMSO control)” value on NEK7-HiBiT protein is “B (Levels of NEK7-HiBiT Protein > 25% and ≤50%)”.

Turning to `CC(=O)Nc1ccc(-c2ccc3c(c2)CN(C2CCC(=O)NC2=O)C3=O)nc1` (stereo not drawn) [7(2), N-(6-(2-(2,6-dioxopiperidin-3-yl)-1-oxoisoindolin-5-yl)pyridin-3-yl)acetamide], the activation at 1 µM in experiment [1] is above 80%. Also, the EC50 in experiment [2] was 100 to 316 nM. Also, the “Levels … (as a % of DMSO control)” value at NEK7-HiBiT protein is “B (Levels of NEK7-HiBiT Protein > 25% and ≤50%)”.

As for `O=C1CCC(N2Cc3cc(-c4ccc(C(F)(F)F)cn4)ccc3C2=O)C(=O)N1` (stereo not drawn) [16(2), 3-(1-oxo-5-(5-(trifluoromethyl)pyridin-2-yl)isoindolin-2-yl)piperidine-2,6-dione], the activation at 1 µM in experiment [1] is above 80%. Further, the EC50 in experiment [2] is 316 to 1000 nM. Also, at NEK7-HiBiT protein, the “Levels … (as a % of DMSO control)” value is on record as “A (Levels of NEK7-HiBiT Protein ≤ 25%)”.

Regarding `O=C1CCC(N2C(=O)c3ccc(-c4ccccn4)c4cccc2c34)C(=O)N1` (stereo not drawn) [23(2), 3-(2-oxo-5-(pyridin-2-yl)benzo[cd]indol-1 (2H)-yl)piperidine-2,6-dione], the activation at 1 µM in experiment [1] is above 80%. Also, the EC50 in experiment [2] is below 100 nM. Moreover, at NEK7-HiBiT protein, the “Levels … (as a % of DMSO control)” value is “B (Levels of NEK7-HiBiT Protein > 25% and ≤50%)”.

In the case of `CC1c2cc(-c3ccccn3)ccc2C(=O)N1C1CCC(=O)NC1=O` (stereo not drawn) [24(2), 3-(3-methyl-1-oxo-5-(pyridin-2-yl)isoindolin-2-yl)piperidine-2,6-dione], the activation at 1 µM in experiment [1] was above 80%. In addition, the EC50 in experiment [2] is 100 to 316 nM. In addition, on NEK7-HiBiT protein, the “Levels … (as a % of DMSO control)” value is on record as “A (Levels of NEK7-HiBiT Protein ≤ 25%)”.

As for `COc1ccc(-c2ccc3c(c2)CN(C2CCC(=O)NC2=O)C3=O)nc1` (stereo not drawn) [25(2), 3-(5-(5-methoxypyridin-2-yl)-1-oxoisoindolin-2-yl)piperidine-2,6-dione], in experiment [1], the activation at 1 µM was above 80%. In addition, the EC50 in experiment [2] was 100 to 316 nM. Further, the “Levels … (as a % of DMSO control)” value at NEK7-HiBiT protein is on record as “A (Levels of NEK7-HiBiT Protein ≤ 25%)”.

Consider `O=C1CCC(N2Cc3cc(-c4cc(C(F)(F)F)ccn4)ccc3C2=O)C(=O)N1` (stereo not drawn) [26(2), 3-(1-oxo-5-(4-(trifluoromethyl)pyridin-2-yl)isoindolin-2-yl)piperidine-2,6-dione], for which the activation at 1 µM in experiment [1] fell in the range of 20 to 80%. For the same molecule, the EC50 in experiment [2] was 316 to 1000 nM. On NEK7-HiBiT protein, the “Levels … (as a % of DMSO control)” value was “C (Levels of NEK7-HiBiT Protein > 50% and <75%)”.

For `COc1ccnc(-c2ccc3c(c2)CN(C2CCC(=O)NC2=O)C3=O)c1` (stereo not drawn) [27(2), 3-(5-(4-methoxypyridin-2-yl)-1-oxoisoindolin-2-yl)piperidine-2,6-dione], in experiment [1], the activation at 1 µM fell in the range of 20 to 80%. Besides, the EC50 in experiment [2] is 316 to 1000 nM. For the same molecule, the “Levels … (as a % of DMSO control)” value at NEK7-HiBiT protein is “D (Levels of NEK7-HiBiT Protein ≥ 75%)”.
